Measurements as given in patent publication US12410208B2, “(2-acetamidyl)thio-beta-D-galactopyranoside derivatives” (Idorsia Pharmaceuticals Ltd, priority 2020, dated 2025).
Like-named read-outs stand apart in the source and are kept apart here.

What was measured:
[1] = target: biotinylated human Gal-3 (hGal-3) (Homo sapiens, UniProt P17931); experiment: Competitive binding assay: biotinylated hGal-3 binding to microplate-adsorbed asialofetuin (ASF), spectrophotometric
Experimental: If not explicitly mentioned otherwise, the inhibition data refer to the binding of biotinylated human Gal-3 (hGal-3).
(§1) Biological Assay Evaluation of Compound Inhibitory Activity (IC50)
The inhibitory activity of compounds is determined in competitive binding assays.
Briefly, compounds are serially diluted in DMSO (working dilutions).
(§2) Plates are incubated for 3 hours at 4° C., then washed with cold assay buffer (3×50 uL), incubated for 1 hour with 25 μL/well of a streptavidin-peroxidase solution (diluted in assay buffer to 80 ng/mL) at 4° C., followed by further washing steps with assay buffer (3×50 uL). Finally, 25 μL/well of ABTS substrate is added.
(§3) The calculated IC50 values may fluctuate depending on the daily assay performance. Fluctuations of this kind are known to those skilled in the art. IC50 values from several measurements are given as mean values.

[2] = target: human Gal-1 (hGal-1) (Homo sapiens, UniProt P09382); experiment: Competitive binding assay: biotinylated hGal-1 binding to microplate-adsorbed asialofetuin (ASF), spectrophotometric; settings: hGal-1 binding to asialofetuin; Table 15; R and S epimers of selected Examples also listed; read-out: IC50 (Galectin-1 inhibition)
Experimental: as §1
The inhibitory activity of compounds is determined in competitive binding assays. This spectrophotometric assay measures the binding of biotinylated human Gal-3 (hGal-3) or human Gal-1 (hGal-1), respectively, to a microplate-adsorbed glycoprotein, asialofetuin (ASF) (Proc Natl Acad Sci USA. 2013 Mar. 26; 110(13):5052-7.).
Briefly, compounds are serially diluted in DMSO (working dilutions). ASF-coated 384well plates are supplemented with 22.8 μL/well of biotinylated hGal-3 or hGal-1 in assay buffer (i.e. 300-1000 ng/mL biotinylated hGal-3 or hGal-1) to which 1.2 μL of compound working dilutions are added and mixed.
as §2, §3

[3] = Table 13, hGal-3, read-out: IC50 (Gal-3 inhibition)
[4] = Gal-3 inhibition, Table 5, read-out: IC50
[5] = Gal-3 inhibition, Table 2, read-out: IC50
[6] = Table 6, hGal-3, read-out: IC50 (Gal-3 inhibition)

Sequence of biotinylated human Gal-3 (hGal-3) (P17931 whole entry): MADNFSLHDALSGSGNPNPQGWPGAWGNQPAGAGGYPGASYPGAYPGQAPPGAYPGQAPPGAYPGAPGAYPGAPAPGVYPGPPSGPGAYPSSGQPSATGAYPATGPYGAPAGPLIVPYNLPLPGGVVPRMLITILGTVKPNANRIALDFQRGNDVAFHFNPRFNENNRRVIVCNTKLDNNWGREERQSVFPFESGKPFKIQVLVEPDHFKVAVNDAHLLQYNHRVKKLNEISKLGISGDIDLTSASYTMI
Sequence of human Gal-1 (hGal-1) (P09382 whole entry): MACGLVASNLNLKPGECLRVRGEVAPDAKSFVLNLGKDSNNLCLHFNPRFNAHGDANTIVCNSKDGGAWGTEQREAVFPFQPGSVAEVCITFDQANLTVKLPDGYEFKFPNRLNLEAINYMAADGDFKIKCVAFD

| Compound | IC50 [2] [nM] | also measured |
| --- | --- | --- |
| 2-(4,4-Difluoro-1-hydroxycyclohexyl)-2-(((2S,3R,4S,5R,6R)-3,5-dihydroxy-6-(hydroxymethyl)-4-(4-(3,4,5-trifluorophenyl)-1H-1,2,3-triazol-1-yl)tetrahydro-2H-pyran-2-yl)thio)-1-(piperidin-1-yl)ethan-1-one [Example 2.44.208.] | 210 | IC50 [1, 4]: 70 nM |
| CN(CC(C)(C)F)C(=O)C(S[C@@H]1O[C@H](CO)[C@H](O)[C@H](n2cc(-c3cc(F)c(F)c(F)c3)nn2)[C@H]1O)C1(O)CCC1 (stereo partly drawn) [Example 2.34.222., 2-(((2S,3R,4S,5R,6R)-3,5-Dihydroxy-6-(hydroxymethyl)-4-(4-(3,4,5-trifluorophenyl)-1H-1,2,3-triazol-1-yl)tetrahydro-2H-pyran-2-yl)thio)-N-(2-fluoro-2-methylpropyl)-2-(1-hydroxycyclobutyl)-N-methylacetamide] | 220 | IC50 [1, 4]: 410 nM |
| CC(C)CN(C)C(=O)[C@@H](S[C@@H]1O[C@H](CO)[C@H](O)[C@H](n2cc(-c3cc(F)c(F)c(F)c3)nn2)[C@H]1O)C1(O)CCOCC1 [Example 2.41.200S., (S)-2-(((2S,3R,4S,5R,6R)-3,5-Dihydroxy-6-(hydroxymethyl)-4-(4-(3,4,5-trifluorophenyl)-1H-1,2,3-triazol-1-yl)tetrahydro-2H-pyran-2-yl)thio)-2-(4-hydroxytetrahydro-2H-pyran-4-yl)-N-isobutyl-N-methylacetamide] | 110 | IC50 [1, 5]: 50 nM |
| CN(CC1CC1)C(=O)C(S[C@@H]1O[C@H](CO)[C@H](O)[C@H](n2cc(-c3cc(F)c(F)c(F)c3)nn2)[C@H]1O)C1(O)CCC1 (stereo partly drawn) [Example 2.34.218., N-(Cyclopropylmethyl)-2-(((2S,3R,4S,5R,6R)-3,5-dihydroxy-6-(hydroxymethyl)-4-(4-(3,4,5-trifluorophenyl)-1H-1,2,3-triazol-1-yl)tetrahydro-2H-pyran-2-yl)thio)-2-(1-hydroxycyclobutyl)-N-methylacetamide] | 220 | IC50 [1, 4]: 310 nM |
| CCN(C)C(=O)[C@H](S[C@@H]1O[C@H](CO)[C@H](O)[C@H](n2cc(-c3cc(F)c(F)c(F)c3)nn2)[C@H]1O)C(O)(CC)CC [Example 2.32.203R., (R)-2-(((2S,3R,4S,5R,6R)-3,5-Dihydroxy-6-(hydroxymethyl)-4-(4-(3,4,5-trifluorophenyl)-1H-1,2,3-triazol-1-yl)tetrahydro-2H-pyran-2-yl)thio)-N,3-diethyl-3-hydroxy-N-methylpentanamide] | 30800 | IC50 [1, 6]: 4550 nM |
| CN(CC(F)(F)F)C(=O)[C@H](S[C@@H]1O[C@H](CO)[C@H](O)[C@H](n2cc(-c3cc(F)c(F)c(F)c3)nn2)[C@H]1O)C1(O)CCC1 [Example 2.34.219R., (R)-2-(((2S,3R,4S,5R,6R)-3,5-Dihydroxy-6-(hydroxymethyl)-4-(4-(3,4,5-trifluorophenyl)-1H-1,2,3-triazol-1-yl)tetrahydro-2H-pyran-2-yl)thio)-2-(1-hydroxycyclobutyl)-N-methyl-N-(2,2,2-trifluoroethyl)acetamide] | 33600 | IC50 [1, 4]: 7840 nM |
| CCC(O)(CC)C(S[C@@H]1O[C@H](CO)[C@H](O)[C@H](n2cc(-c3cc(F)c(F)c(F)c3)nn2)[C@H]1O)C(=O)N(C)CC1CC1 (stereo partly drawn) [Example 2.32.218., N-(Cyclopropylmethyl)-2-(((2S,3R,4S,5R,6R)-3,5-dihydroxy-6-(hydroxymethyl)-4-(4-(3,4,5-trifluorophenyl)-1H-1,2,3-triazol-1-yl)tetrahydro-2H-pyran-2-yl)thio)-3-ethyl-3-hydroxy-N-methylpentanamide] | 1130 | IC50 [1, 6]: 710 nM |
| CC(C)CN(C)C(=O)C(S[C@@H]1O[C@H](CO)[C@H](O)[C@H](n2cc(-c3cc(F)c(F)c(F)c3)nn2)[C@H]1O)C1(O)CCOCC1 (stereo partly drawn) [Example 2.41.200., 2-(((2S,3R,4S,5R,6R)-3,5-Dihydroxy-6-(hydroxymethyl)-4-(4-(3,4,5-trifluorophenyl)-1H-1,2,3-triazol-1-yl)tetrahydro-2H-pyran-2-yl)thio)-2-(4-hydroxytetrahydro-2H-pyran-4-yl)-N-isobutyl-N-methylacetamide] | 260 | IC50 [1, 5]: 60 nM |
| (R)-2-(((2S,3R,4S,5R,6R)-3,5-dihydroxy-6-(hydroxymethyl)-4-(4-(3,4,5-trifluorophenyl)-1H-1,2,3-triazol-1-yl)tetrahydro-2H-pyran-2-yl)thio)-3-hydroxy-3-methyl-1-(3-methylazetidin-1-yl)butan-1-one [Example 2.31.205R.] | 20000 | – |
| CC1CN(C(=O)[C@@H](S[C@@H]2O[C@H](CO)[C@H](O)[C@H](n3cc(-c4cc(F)c(F)c(F)c4)nn3)[C@H]2O)C(C)(C)O)C1 [Example 2.31.205S., (S)-2-(((2S,3R,4S,5R,6R)-3,5-dihydroxy-6-(hydroxymethyl)-4-(4-(3,4,5-trifluorophenyl)-1H-1,2,3-triazol-1-yl)tetrahydro-2H-pyran-2-yl)thio)-3-hydroxy-3-methyl-1-(3-methylazetidin-1-yl)butan-1-one] | 820 | – |
| CC(C)(O)[C@H](S[C@@H]1O[C@H](CO)[C@H](O)[C@H](n2cc(-c3cc(F)c(F)c(F)c3)nn2)[C@H]1O)C(=O)N1CCCC1 [Example 2.31.211S., (S)-2-(((2S,3R,4S,5R,6R)-3,5-Dihydroxy-6-(hydroxymethyl)-4-(4-(3,4,5-trifluorophenyl)-1H-1,2,3-triazol-1-yl)tetrahydro-2H-pyran-2-yl)thio)-3-hydroxy-3-methyl-1-(pyrrolidin-1-yl)butan-1-one] | 530 | – |

The next lines start with results.

| IC50 [2] [nM] | Compound | also measured |
| --- | --- | --- |
| 120 | CO[C@@H]1[C@@H](n2cc(-c3cc(F)c(F)c(F)c3)nn2)[C@@H](O)[C@@H](CO)O[C@H]1SC(C(=O)N1CCC(F)(F)CC1)C1(O)CCC2(CCOCC2)CC1 (stereo partly drawn) [Example 2.72.226.I., 1-(4,4-Difluoropiperidin-1-yl)-2-(((2S,3R,4S,5R,6R)-5-hydroxy-6-(hydroxymethyl)-3-methoxy-4-(4-(3,4,5-trifluorophenyl)-1H-1,2,3-triazol-1-yl)tetrahydro-2H-pyran-2-yl)thio)-2-(9-hydroxy-3-oxaspiro[5.5]undecan-9-yl)ethan-1-one] | IC50 [1, 3]: 60 nM |
| 270 | CO[C@@H]1[C@@H](n2cc(-c3cc(F)c(F)c(F)c3)nn2)[C@@H](O)[C@@H](CO)O[C@H]1S[C@H](C(=O)N1CCC(F)(F)CC1)C1(O)CCC2(CCC2)CC1 [Example 2.69.226S.I., (S)-1-(4,4-Difluoropiperidin-1-yl)-2-(((2S,3R,4S,5R,6R)-5-hydroxy-6-(hydroxymethyl)-3-methoxy-4-(4-(3,4,5-trifluorophenyl)-1H-1,2,3-triazol-1-yl)tetrahydro-2H-pyran-2-yl)thio)-2-(7-hydroxyspiro[3.5]nonan-7-yl)ethan-1-one] | IC50 [1, 3]: 120 nM |
| 350 | 2-(4,4-Difluoro-1-hydroxycyclohexyl)-2-(((2S,3R,4S,5R,6R)-3,5-dihydroxy-6-(hydroxymethyl)-4-(4-(3,4,5-trifluorophenyl)-1H-1,2,3-triazol-1-yl)tetrahydro-2H-pyran-2-yl)thio)-N-(2-fluoro-2-methylpropyl)-N-methylacetamide [Example 2.44.222.] | IC50 [1, 4]: 130 nM |
| 60 | CCN(C)C(=O)[C@@H](S[C@@H]1O[C@H](CO)[C@H](O)[C@H](n2cc(-c3cc(F)c(F)c(F)c3)nn2)[C@H]1O)C1(O)CCN(C(=O)OC)CC1 [Example 2.50.203S., (S)-Methyl 4-(1-(((2S,3R,4S,5R,6R)-3,5-dihydroxy-6-(hydroxymethyl)-4-(4-(3,4,5-trifluorophenyl)-1H-1,2,3-triazol-1-yl)tetrahydro-2H-pyran-2-yl)thio)-2-(ethyl(methyl)amino)-2-oxoethyl)-4-hydroxypiperidine-1-carboxylate] | IC50 ([1]; Table 8, hGal-3, read-out: IC50 (Gal-3 inhibition)): 40 nM |
| 120 | CO[C@@H]1[C@@H](n2cc(-c3cc(F)c(F)c(F)c3)nn2)[C@@H](O)[C@@H](CO)O[C@H]1SC(C(=O)N(C)CCC(C)(C)C)C1(O)CCC(F)(F)CC1 (stereo partly drawn) [Example 2.44.225.I., 2-(4,4-Difluoro-1-hydroxycyclohexyl)-N-(3,3-dimethylbutyl)-2-(((2S,3R,4S,5R,6R)-5-hydroxy-6-(hydroxymethyl)-3-methoxy-4-(4-(3,4,5-trifluorophenyl)-1H-1,2,3-triazol-1-yl)tetrahydro-2H-pyran-2-yl)thio)-N-methylacetamide] | IC50 ([1]; Table 12, hGal-3, read-out: IC50 (Gal-3 inhibition)): 100 nM |
| 30 | CN(C(=O)C(S[C@@H]1O[C@H](CO)[C@H](O)[C@H](n2cc(-c3cc(F)c(F)c(F)c3)nn2)[C@H]1O)C1(O)CCOCC1)C1CCC1 (stereo partly shown) [Example 2.41.220.] | IC50 ([1]; Table 10, hGal-3, read-out: IC50 (Gal-3 inhibition)): 50 nM |
